Measurements as given in ChEMBL document CHEMBL5120863, “Sophorolipids: Anti-cancer activities and mechanisms” (Bioorg Med Chem, 2022).
Converted amounts (≈) assume the structure as drawn.

Tests used:
A549 [1] = assay: Cytotoxicity against human A549 cells assessed as cell growth inhibition measured after 48 hrs by MTT assay; assay type: functional, cell-based; conditions: A549, 48 h
A-431 = assay: Cytotoxicity against human A-431 cells assessed as cell growth inhibition measured after 48 hrs by MTT assay; assay type: functional, cell-based; conditions: A-431, 48 h
PANC-1 [2] = assay: Cytotoxicity against human PANC-1 cells assessed as cell growth inhibition measured after 48 hrs by MTT assay; assay type: functional, cell-based; conditions: PANC-1, 48 h
HeLa [3] = assay: Cytotoxicity against human HeLa cells assessed as cell growth inhibition measured after 48 hrs by MTT assay; assay type: functional, cell-based
MCF7 [4] = assay: Cytotoxicity against human MCF7 cells assessed as cell growth inhibition measured after 48 hrs by MTT assay; assay type: functional, cell-based; conditions: MCF7, 48 h
HCT-116 = assay: Cytotoxicity against human HCT-116 cells assessed as cell growth inhibition measured after 48 hrs by MTT assay; assay type: functional, cell-based; conditions: HCT-116, 48 h
[5] = Cytotoxicity against human L929 cells assessed as cell growth inhibition measured after 48 hrs by MTT assay; assay type: toxicity, cell-based; conditions: mouse
[6] = Cytotoxicity against human HUVEC cells assessed as cell growth inhibition measured after 48 hrs by MTT assay; assay type: toxicity, cell-based
PANC-1 [7] = assay: Cytotoxicity against human PANC-1 cells assessed as cell growth inhibition measured after 72 hrs by MTT assay; assay type: functional, cell-based; conditions: PANC-1, 72 h
Jurkat [8] = assay: Cytotoxicity against human Jurkat cells assessed as reduction in cell viability at 25 ug/ml measured after 24 hrs; assay type: functional; conditions: dose 25 µg/ml
A549 [9] = assay: Cytotoxicity against human A549 cells assessed as cell growth inhibition measured after 48 hrs; assay type: functional, cell-based; conditions: A549, 48 h
ECa-109 cell line = assay: Cytotoxicity against human Eca-109 cells assessed as cell growth inhibition measured after 24 hrs by MTT assay; assay type: functional, cell-based; conditions: ECa-109, 24 h
KYSE-450 = assay: Cytotoxicity against human KYSE-450 cells assessed as cell growth inhibition measured after 24 hrs by MTT assay; assay type: functional, cell-based; conditions: KYSE-450, 24 h
HeLa [10] = assay: Cytotoxicity against human HeLa cells assessed as cell growth inhibition measured after 24 hrs by MTT assay; assay type: functional, cell-based
HT-29 = assay: Cytotoxicity against human HT-29 cells assessed as cell growth inhibition; assay type: functional, cell-based
THP-1 [11] = assay: Cytotoxicity against human THP-1 cells assessed as cell growth inhibition measured after 72 hrs by MTT assay; assay type: functional, cell-based; conditions: THP-1, 72 h
MDA-MB-231 [12] = assay: Cytotoxicity against human MDA-MB-231 cells assessed as reduction in cell viability at 3.68 ug/ml measured after 48 hrs by MTT assay relative to control; assay type: functional; conditions: dose 3.68 µg/ml
MCF7 [13] = assay: Cytotoxicity against human MCF7 cells assessed as reduction in cell viability at 14.7 ug/ml measured after 24 hrs by MTT assay relative to control; assay type: functional; conditions: dose 14.7 µg/ml
THP-1 [14] = assay: Cytotoxicity against human THP-1 cells assessed as cell growth inhibition measured after 24 hrs by MTT assay; assay type: functional, cell-based; conditions: THP-1, 24 h
[15] = Cytotoxicity against human HEK293 cells assessed as cell growth inhibition measured after 24 hrs by MTT assay; assay type: toxicity, cell-based
Jurkat [16] = assay: Cytotoxicity against human Jurkat cells assessed as cell growth inhibition measured after 45 hrs; assay type: functional, cell-based
Jurkat [17] = assay: Cytotoxicity against human Jurkat cells assessed as cell growth inhibition measured after 24 hrs; assay type: functional, cell-based
Caco-2 = assay: Cytotoxicity against human Caco2 cells assessed as cell growth inhibition measured after 24 by MTT assay; assay type: functional, cell-based
[18] = Cytotoxicity against human CCD-841CoN cells assessed as cell growth inhibition measured after 24 hrs by MTT assay; assay type: toxicity, cell-based
MCF7 [19] = assay: Cytotoxicity against human MCF7 cells assessed as reduction in cell viability at 14.7 ug/ml measured after 48 hrs by MTT assay relative to control; assay type: functional; conditions: dose 14.7 µg/ml
MDA-MB-231 [20] = assay: Cytotoxicity against human MDA-MB-231 cells assessed as reduction in cell viability at 3.68 ug/ml measured after 24 hrs by MTT assay relative to control; assay type: functional; conditions: dose 3.68 µg/ml
LS180 = assay: Cytotoxicity against human LS180 cells assessed as cell growth inhibition; assay type: functional, cell-based
[21] = Cytotoxicity against human HEK293 cells assessed as cell growth inhibition measured after 48 hrs by MTT assay; assay type: toxicity, cell-based
THP-1 [22] = assay: Cytotoxicity against human THP-1 cells assessed as cell growth inhibition measured after 48 hrs by MTT assay; assay type: functional, cell-based; conditions: THP-1, 48 h
[23] = Cytotoxicity against human HEK293 cells assessed as cell growth inhibition measured after 72 hrs by MTT assay; assay type: toxicity, cell-based
LN-229 = assay: Cytotoxicity against human LN-229 cells assessed as cell growth inhibition measured after 48 hrs; assay type: functional, cell-based; conditions: LN-229, 48 h
HPAC = assay: Cytotoxicity against human HPAC cells assessed as reduction in LDH release at 100 ug/ml measured after 12 hrs by CytoTox96 nonradioactive assay; assay type: functional; parameters: scale not given: the % may be the effect or the level left; conditions: dose 100 µg/ml
MDA-MB-231 [24] = assay: Cytotoxicity against human MDA-MB-231 cells assessed as cell growth inhibition measured after 24 hrs by crystal violet staining based assay; assay type: functional; conditions: MDA-MB-231, 24 h
[25] = Antitumor activity against human HeLa cells xenografted in BALB/c mouse assessed as reduction in tumor weight at 500 mg/kg, IG administered once daily for 12 days measured after 14 days; assay type: functional; parameters: scale not given: the % may be the effect or the level left; conditions: time 12 day
[26] = Antitumor activity against human HeLa cells xenografted in BALB/c mouse assessed as reduction in tumor weight at 5 mg/kg, IG administered once daily for 12 days measured after 14 days; assay type: functional; parameters: scale not given: the % may be the effect or the level left; conditions: time 12 day
[27] = Antitumor activity against human HeLa cells xenografted in BALB/c mouse assessed as reduction in tumor weight at 50 mg/kg, IG administered once daily for 12 days measured after 14 days; assay type: functional; parameters: scale not given: the % may be the effect or the level left; conditions: time 12 day
HL-60 = assay: Cytotoxicity against human HL-60 cells assessed as cell growth inhibition measured after 48 hrs; assay type: functional, cell-based; conditions: HL-60, 48 h
K562 = assay: Cytotoxicity against human K562 cells assessed as cell growth inhibition measured after 48 hrs; assay type: functional, cell-based; conditions: K562, 48 h

## CCCCCCCCCCCCCCCCO[C@@H]1O[C@H](COC(C)=O)[C@@H](O)[C@H](O)[C@H]1O[C@@H]1O[C@H](CO)[C@@H](O)[C@H](O)[C@H]1O
A549 [1]
  IC50: 15 µg/mL
A-431
  IC50: 14.9 µg/mL (≈ 24.6 µM)
PANC-1 [2]
  IC50: 116 µg/mL (≈ 191 µM)
HeLa [3]
  IC50: 14.1 µg/mL (≈ 23.2 µM)
MCF7 [4]
  IC50: 37.7 µg/mL (≈ 61.9 µM)
HCT-116
  IC50: 23.2 µg/mL (≈ 38.1 µM)
[5]
  IC50 at 48 h: > 320 µg/mL
[6]
  IC50 at 48 h: > 320 µg/mL
PANC-1 [7]
  IC50: > 100 µg/mL

## CCCCOC(=O)CCCCCCC/C=C\CCCCCCC(C)O[C@@H]1O[C@H](CO)[C@@H](O)[C@H](O)[C@H]1O[C@@H]1O[C@H](CO)[C@@H](O)[C@H](O)[C@H]1O (stereo partly specified)
Jurkat [8]
  Activity: 0%

## CCCCCCCCCCCCCCCCO[C@@H]1O[C@H](CO)[C@@H](O)[C@H](O)[C@H]1O[C@@H]1O[C@H](CO)[C@@H](O)[C@H](O)[C@H]1O
A549 [1]
  IC50: 236 µg/mL
A-431
  IC50: 236 µg/mL (≈ 417 µM)
PANC-1 [2]
  IC50: 113 µg/mL (≈ 199 µM)
HeLa [3]
  IC50: 16.3 µg/mL (≈ 28.8 µM)
MCF7 [4]
  IC50: 65.7 µg/mL (≈ 116 µM)
HCT-116
  IC50: 62.8 µg/mL (≈ 111 µM)
[5]
  IC50 at 48 h: > 320 µg/mL
[6]
  IC50 at 48 h: > 320 µg/mL
PANC-1 [7]
  IC50: > 100 µg/mL

## CC(=O)OC[C@H]1O[C@H]2OC(C)CCC/C=C/C/C=C\CCCCCCCC(=O)O[C@H]3[C@H](O)[C@@H](O)[C@H](O[C@@H]2[C@@H](O)[C@@H]1O)O[C@@H]3COC(C)=O (stereo partly specified)
A549 [9]
  IC50: 22 µg/mL (≈ 32 µM)
ECa-109 cell line
  IC50: 15 µg/mL (≈ 21.8 µM)
KYSE-450
  IC50: 35 µg/mL (≈ 51 µM)
HeLa [10]
  IC50: 476 µg/mL (≈ 694 µM)

## COc1cccc2c1C(=O)c1c(O)c3c(c(O)c1C2=O)C[C@@](O)(C(=O)CO)C[C@@H]3O[C@H]1C[C@H](N)[C@H](O)[C@H](C)O1 [DOXORUBICIN]
A549 [1]
  IC50: 9.5 µM
HT-29
  IC50: 1.6 µg/mL (≈ 2.94 µM)
THP-1 [11]
  IC50: 3 µg/mL (≈ 5.52 µM)
HeLa [3]
  IC50: 13 µg/mL (≈ 23.9 µM)
MDA-MB-231 [12]
  Activity: 45%
MCF7 [13]
  Activity: 45%
THP-1 [14]
  IC50: 15.7 µg/mL (≈ 28.9 µM)
[15]
  IC50 at 24 h: 16.7 µg/mL (≈ 30.7 µM)
Jurkat [16]
  IC50: 0.3 µM
Jurkat [17]
  IC50: 1 µM
Caco-2
  IC50: 64.2 µg/mL (≈ 118 µM)
[18]
  IC50 at 24 h: 1.5 µg/mL (≈ 2.76 µM)
MCF7 [19]
  Activity: 40%
MDA-MB-231 [20]
  Activity: 55%
HeLa [10]
  IC50: 7.4 µg/mL (≈ 13.6 µM)
LS180
  IC50: 0.7 µg/mL (≈ 1.29 µM)
[21]
  IC50 at 48 h: 6.1 µg/mL (≈ 11.2 µM)
THP-1 [22]
  IC50: 6.5 µg/mL (≈ 12 µM)
[23]
  IC50 at 72 h: 1 µg/mL (≈ 1.84 µM)
LN-229
  IC50: 2 µg/mL (≈ 3.68 µM)

## COC(=O)CCCCCCC/C=C\CCCCCCC(C)O[C@@H]1O[C@H](CO)[C@@H](O)[C@H](O)[C@H]1O[C@@H]1O[C@H](CO)[C@@H](O)[C@H](O)[C@H]1O (stereo partly specified)
HPAC
  Activity: 58.4%

## CCOC(=O)CCCCCCC/C=C\CCCCCCC(C)O[C@@H]1O[C@H](COC(C)=O)[C@@H](O)[C@H](O)[C@H]1O[C@@H]1O[C@H](COC(C)=O)[C@@H](O)[C@H](O)[C@H]1O (stereo partly specified)
Jurkat [8]
  Activity: 90%

## CCOC(=O)CCCCCCC/C=C\CCCCCCC(C)O[C@@H]1O[C@H](COC(C)=O)[C@@H](O)[C@H](O)[C@H]1O[C@@H]1O[C@H](CO)[C@@H](O)[C@H](O)[C@H]1O (stereo partly specified)
HPAC
  Activity: 27.4%

## CCOC(=O)CCCCCCC/C=C\CCCCCCC(C)O[C@@H]1O[C@H](CO)[C@@H](O)[C@H](O)[C@H]1O[C@@H]1O[C@H](CO)[C@@H](O)[C@H](O)[C@H]1O (stereo partly specified)
HPAC
  Activity: 23.6%
Jurkat [8]
  Activity: 0%

## CC(CCCCCC/C=C\CCCCCCCC(=O)O)O[C@@H]1O[C@H](CO)[C@@H](O)[C@H](O)[C@H]1O[C@@H]1O[C@H](CO)[C@@H](O)[C@H](O)[C@H]1O (stereo partly specified)
MDA-MB-231 [24]
  IC50: 80 µM

## CC(=O)OC[C@H]1O[C@H]2OC(C)CCCCCCCCCCCCCCCC(=O)O[C@H]3[C@H](O)[C@@H](O)[C@H](O[C@@H]2[C@@H](O)[C@@H]1O)O[C@@H]3COC(C)=O (stereo partly specified)
MDA-MB-231 [24]
  IC50: 15 µM
HeLa [10]
  IC50: 30.2 µg/mL (≈ 43.7 µM)

## CCCCOC(=O)CCCCCCC/C=C\CCCCCCC(C)O[C@@H]1O[C@H](COC(C)=O)[C@@H](O)[C@H](O)[C@H]1O[C@@H]1O[C@H](COC(C)=O)[C@@H](O)[C@H](O)[C@H]1O (stereo partly specified)
Jurkat [8]
  Activity: 99%

## COC(=O)CCCCCCC/C=C\CCCCCCC(C)O[C@@H]1O[C@H](COC(C)=O)[C@@H](O)[C@H](O)[C@H]1O[C@@H]1O[C@H](COC(C)=O)[C@@H](O)[C@H](O)[C@H]1O (stereo partly specified)
HPAC
  Activity: 25.5%

## CC(=O)OC[C@H]1O[C@H]2O[C@H]3[C@H](OC(C)CCCCCC/C=C\CCCCCCCC(=O)O[C@H]1[C@H](O)[C@H]2O)O[C@H](CO)[C@@H](O)[C@@H]3O (stereo partly specified)
[25]
  Activity: 52.06%
MDA-MB-231 [24]
  IC50: 15 µM
[26]
  Activity: 29.9%
[27]
  Activity: 41.24%

## CC(=O)OC[C@H]1O[C@H]2OC(C)/C=C/C/C=C/C/C=C\CCCCCCCC(=O)O[C@H]3[C@H](O)[C@@H](O)[C@H](O[C@@H]2[C@@H](O)[C@@H]1O)O[C@@H]3COC(C)=O (stereo partly specified)
MDA-MB-231 [24]
  IC50: 30 µM
HL-60
  IC50: 5 µg/mL (≈ 7.3 µM)
HeLa [10]
  IC50: 51.5 µg/mL (≈ 75.2 µM)

## CC(=O)OC[C@H]1O[C@H]2OC(C)/C=C/C/C=C/C/C=C\C/C=C/CCCCC(=O)O[C@H]3[C@H](O)[C@@H](O)[C@H](O[C@@H]2[C@@H](O)[C@@H]1O)O[C@@H]3COC(C)=O (stereo partly specified)
K562
  IC50: 40 µg/mL (≈ 58.6 µM)
